Assays:
[1] = test system: HCV genotype 1b (Con1) replicon in HUH-7 cells; experiment: HCV replicon luciferase reporter assay, genotype 1b; format: cell-based; conditions: Hepatitis C virus, Huh-7, 72 h, HCV genotype 1b replicon luciferase, 3 days incubation, read-out: LE_1b (EC50, range)
How it was run: (§1)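 Replicon inhibition for both genotypes was measured as Renilla luciferase signal (EnduRen, 7.5 μM final, 2 h) after 3-day, 37° C exposure of replicon-bearing HUH-7 cells in 4% FCS DMEM, 0.5% DMSO. The 1b construct carries S1179I; the 1a H77 construct carries P1496L and S2204I. Twenty-point, 3-fold dilutions were fitted four-parametrically for EC50, and CC50 was taken from multiplexed Cell Titer-Blue.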

[2] = test system: HCV genotype 1a (H77 strain) replicon in HUH-7 cells; experiment: HCV replicon luciferase reporter assay, genotype 1a; format: cell-based; conditions: Hepatitis C virus, Huh-7, 72 h, HCV genotype 1a replicon luciferase, 3 days incubation, read-out: LE_1a (EC50, range)
How it was run: as §1

Compound | EC50 [1] [nM] | EC50 [2] [nM]
[2H]C([2H])([2H])Oc1cc2ccnc(O[C@@H]3C[C@H]4C(=O)N[C@]5(C(=O)NS(=O)(=O)C6(C)CC6)C[C@H]5/C=C\CC[C@@H](C)C[C@@H](CC)[C@H](NC(=O)OC(C([2H])([2H])[2H])(C([2H])([2H])[2H])C(F)(F)F)C(=O)N4C3)c2cc1F [Compound 5505] | 1.01 to 5 | 5.01 to 35
CC[C@@H]1C[C@H](C)CC/C=C\[C@@H]2C[C@@]2(C(=O)NS(=O)(=O)C2(C)CC2)NC(=O)[C@@H]2C[C@@H](Oc3nccc4cc(OC)ccc34)CN2C(=O)[C@H]1NC(=O)OC(C)(C)C(F)F [Compound 5523, 1,1-difluoro-2-methylpropan-2-yl((2R,6S,7R,9R,13aS,14aR,16aS,Z)-7-ethyl-2-((6-methoxyisoquinolin-1-yl)oxy)-9-methyl-14a-(((1-methylcyclopropyl)sulfonyl)carbamoyl)-5,16-dioxo-1,2,3,5,6,7,8,9,10,11,13a,14,14a,15,16,16a-hexadecahydrocyclopropa[e]pyrrolo[1,2-a][1,4]diazacyclopentadecin-6-yl)carbamate] | 0.51 to 1 | 1.01 to 5
CCOc1cc2ccnc(O[C@@H]3C[C@H]4C(=O)N[C@]5(C(=O)NS(=O)(=O)C6(C)CC6)C[C@H]5/C=C\CC[C@@H](C)C[C@@H](CC)[C@H](NC(=O)OC(C)(C)C(F)F)C(=O)N4C3)c2cc1F [Compound 5525, 1,1-difluoro-2-methylpropan-2-yl((2R,6S,7R,9R,13aS,14aR,16aS,Z)-2-((6-ethoxy-7-fluoroisoquinolin-1-yl)oxy)-7-ethyl-9-methyl-14a-(((1-methylcyclopropyl)sulfonyl)carbamoyl)-5,16-dioxo-1,2,3,5,6,7,8,9,10,11,13a,14,14a,15,16,16a-hexadecahydrocyclopropa[e]pyrrolo[1,2-a][1,4]diazacyclopentadecin-6-yl)carbamate] | 0.51 to 1 | 1.01 to 5
CC[C@@H]1C[C@H](C)CC/C=C\[C@@H]2C[C@@]2(C(=O)NS(=O)(=O)C2(C)CC2)NC(=O)[C@@H]2C[C@@H](Oc3nccc4cc(OC)c(F)cc34)CN2C(=O)[C@H]1NC(=O)OC(C)(C)C(F)F [Compound 5527, 1,1-difluoro-2-methylpropan-2-yl((2R,6S,7R,9R,13aS,14aR,16aS,Z)-7-ethyl-2-((7-fluoro-6-methoxyisoquinolin-1-yl)oxy)-9-methyl-14a-(((1-methylcyclopropyl)sulfonyl)carbamoyl)-5,16-dioxo-1,2,3,5,6,7,8,9,10,11,13a,14,14a,15,16,16a-hexadecahydrocyclopropa[e]pyrrolo[1,2-a][1,4]diazacyclopentadecin-6-yl)carbamate] | 0.51 to 1 | 1.01 to 5
CC[C@@H]1C[C@H](C)CC/C=C\[C@@H]2C[C@@]2(C(=O)NS(=O)(=O)C2(C)CC2)NC(=O)[C@@H]2C[C@@H](Oc3ncc(OC)c4ccc(F)cc34)CN2C(=O)[C@H]1NC(=O)OC(C)(C)C(F)F [Compound 5529, 1,1-difluoro-2-methylpropan-2-yl((2R,6S,7R,9R,13aS,14aR,16aS,Z)-7-ethyl-2-((7-fluoro-4-methoxyisoquinolin-1-yl)oxy)-9-methyl-14a-(((1-methylcyclopropyl)sulfonyl)carbamoyl)-5,16-dioxo-1,2,3,5,6,7,8,9,10,11,13a,14,14a,15,16,16a-hexadecahydrocyclopropa[e]pyrrolo[1,2-a][1,4]diazacyclopentadecin-6-yl)carbamate] | 0.1 to 0.5 | 1.01 to 5
CCOc1cnc(O[C@@H]2C[C@H]3C(=O)N[C@]4(C(=O)NS(=O)(=O)C5(C)CC5)C[C@H]4/C=C\CC[C@@H](C)C[C@@H](CC)[C@H](NC(=O)OC(C)(C)C(F)F)C(=O)N3C2)c2ccccc12 [Compound 5531, 1,1-difluoro-2-methylpropan-2-yl((2R,6S,7R,9R,13aS,14aR,16aS,Z)-2-((4-ethoxyisoquinolin-1-yl)oxy)-7-ethyl-9-methyl-14a-(((1-methylcyclopropyl)sulfonyl)carbamoyl)-5,16-dioxo-1,2,3,5,6,7,8,9,10,11,13a,14,14a,15,16,16a-hexadecahydrocyclopropa[e]pyrrolo[1,2-a][1,4]diazacyclopentadecin-6-yl)carbamate] | 0.51 to 1 | 1.01 to 5
CC[C@@H]1C[C@H](C)CC/C=C\[C@@H]2C[C@@]2(C(=O)NS(=O)(=O)C2(C)CC2)NC(=O)[C@@H]2C[C@@H](Oc3ncc(OC)c4ccccc34)CN2C(=O)[C@H]1NC(=O)OC(C)(C)C(F)F [Compound 5533, 1,1-difluoro-2-methylpropan-2-yl((2R,6S,7R,9R,13aS,14aR,16aS,Z)-7-ethyl-2-((4-methoxyisoquinolin-1-yl)oxy)-9-methyl-14a-(((1-methylcyclopropyl)sulfonyl)carbamoyl)-5,16-dioxo-1,2,3,5,6,7,8,9,10,11,13a,14,14a,15,16,16a-hexadecahydrocyclopropa[e]pyrrolo[1,2-a][1,4]diazacyclopentadecin-6-yl)carbamate] | 0.1 to 0.5 | 1.01 to 5
CC[C@@H]1C[C@H](C)CC/C=C\[C@@H]2C[C@@]2(C(=O)NS(=O)(=O)C2(C)CC2)NC(=O)[C@@H]2C[C@@H](Oc3nccc4c5c(ccc34)OCCO5)CN2C(=O)[C@H]1NC(=O)OC(C)(C)C(F)F [Compound 5535, 1,1-difluoro-2-methylpropan-2-yl((2R,6S,7R,9R,13aS,14aR,16aS,Z)-2-((2,3-dihydro-[1,4]dioxino[2,3-f]isoquinolin-7-yl)oxy)-7-ethyl-9-methyl-14a-(((1-methylcyclopropyl)sulfonyl)carbamoyl)-5,16-dioxo-1,2,3,5,6,7,8,9,10,11,13a,14,14a,15,16,16a-hexadecahydrocyclopropa[e]pyrrolo[1,2-a][1,4]diazacyclopentadecin-6-yl)carbamate] | 1.01 to 5 | 5.01 to 35
CC[C@@H]1C[C@H](C)CC/C=C\[C@@H]2C[C@@]2(C(=O)NS(=O)(=O)C2CC2)NC(=O)[C@@H]2C[C@@H](Oc3ncc(OC)c4ccccc34)CN2C(=O)[C@H]1NC(=O)OC(C)(C)C(F)F [Compound 5537, 1,1-difluoro-2-methylpropan-2-yl((2R,6S,7R,9R,13aS,14aR,16aS,Z)-14a-((cyclopropylsulfonyl)carbamoyl)-7-ethyl-2-((4-methoxyisoquinolin-1-yl)oxy)-9-methyl-5,16-dioxo-1,2,3,5,6,7,8,9,10,11,13a,14,14a,15,16,16a-hexadecahydrocyclopropa[e]pyrrolo[1,2-a][1,4]diazacyclopentadecin-6-yl)carbamate] | 0.1 to 0.5 | 0.51 to 1
CC[C@@H]1C[C@H](C)CC/C=C\[C@@H]2C[C@@]2(C(=O)NS(=O)(=O)C2CC2)NC(=O)[C@@H]2C[C@@H](Oc3nc(OC)cc4ccccc34)CN2C(=O)[C@H]1NC(=O)OC(C)(C)C [Compound 6001, tert-butyl ((2R,6S,7R,9R,13aS,14aR,16aS,Z)-14a-((cyclopropylsulfonyl)carbamoyl)-7-ethyl-2-((3-methoxyisoquinolin-1-yl)oxy)-9-methyl-5,16-dioxo-1,2,3,5,6,7,8,9,10,11,13a,14,14a,15,16,16a-hexadecahydrocyclopropa[e]pyrrolo[1,2-a][1,4]diazacyclopentadecin-6-yl)carbamate] | < 5.46 | < 5.46

Reference: patent publication US9499550B2 (BRISTOL-MYERS SQUIBB COMPANY, priority 2012, dated 2016)
